Source: paper PMC7602804 (Nutrients, 2020)
No end group written: not given here.

Legend:
Caco-2 monolayers = test: Apical to basolateral transport of milk peptides across Caco-2 monolayers (LC-MS/MS of basolateral medium); assay type: in vitro ADME, human; conditions: 2.5 h
Description: The human colorectal adenocarcinoma cell line, Caco-2, was obtained from DSMZ (Braunschweig, Germany). The cells were grown to 50–60% confluence in Dulbecco’s Modified Eagle Medium (DMEM) Glutamax cell culture medium, supplemented with 10% heat-inactivated fetal bovine serum, 100 units/mL of penicillin and 100 μg/mL of streptomycin (all from Invitrogen, Carlsbad, CA, USA) in a humidified 5% CO2/95% air atmosphere at 37 °C. The cells used in the experiments were between passages 30 and 40.
The Caco-2 cells used for transport studies were seeded in polyethylene terephthalate culture inserts, with a pore size of 0.4 μm and a growth area of 0.33 cm^2 at a density of approximately 25,000 cells/insert. The Caco-2 cells were grown for three weeks on the porous membrane before they were used for transepithelial transport. The integrity of the monolayers was confirmed by measuring the TEER using a Millicell ERS-2 volt ohmmeter. Only Caco-2 monolayers with TEER values above 400 Ω cm^2 were used for the transport analysis.
(§1) Following the TEER value measurement, the Caco-2 and PBEC monolayers were gently washed twice with phosphate-buffered saline, and the transport medium (Hanks’ Balanced Salt solution supplemented with 10 mM of HEPES) was added to the apical and basolateral compartments. The inserts were incubated for 15 min or 2.5 h with the purified milk peptides (0.1 mg/mL) or the synthetic PIGSENSEKTTMPLW peptide (2 µg/mL), after which medium from the apical and basolateral compartments were collected for liquid chromatography tandem mass spectrometry (LC-MS/MS) analysis. Inserts incubated with a medium without peptides served as the control in the transport experiments. Membrane integrity was validated by addition of D-[1-^14C]-Mannitol (3.5 µM, 56.8 mCi/mmol) (Perkin Elmer, Waltham, MA, USA) to the upper chamber of the culture inserts with or without milk peptides for 2.5 h. The passive permeability experiments were performed on four or five individual culture inserts. Basolateral samples were mixed with Ultima Gold liquid scintillation fluid (Perkin Elmer) and counted in a Tri-Carb 2810 TR scintillation counter (Perkin Elmer). The apparent permeability coefficient (Papp, cm/s) was determined as Papp = (dQ/dt)/(AC0) where dQ/dt is the steady state flux (cpm/s), A is the surface area of the cell culture insert membrane and C0 is the initial concentration in the apical compartment (cpm/mL).
LC-MS/MS analysis was performed on a TripleTOF 6600 mass spectrometer equipped with an Exigent nanoLC 415 system (AB Sciex, Les Ulis, France). All samples were micro-purified using 3 M Empore C18 discs packed in pipette tips. The lyophilized samples were dissolved in 0.1% formic acid, injected on a trap column (2 cm × 100 µm inner diameter) and separated on an analytical column packed in-house in a pulled emitter (15 cm × 75 µm inner diameter). All columns were packed with ReproSil-Pur C18-AQ 3 µm resin (courtesy of Dr. Marisch, Ammerbuch-Entringen, Germany). Peptides were eluted directly into the mass spectrometer with a linear gradient from 5 to 35% solvent B (0.1% formic acid in acetonitrile) for 20 min with a flowrate of 250 nL/min, followed after 10 min with 100% solvent B. Data files were converted to Mascot Generic Format using the Raw Converter (version 1.1.0.18) (http://fields.scripps.edu/rawconv/) or the AB Sciex MS Data Converter beta 1.1 (AB Sciex, Les Ulis, France). The generated peak lists were searched against the Bos taurus proteome (UniProt database, https://www.uniprot.org)) using an in-house Mascot search engine (Matrix Science, London, UK). The searches were made without specifying a protease and with oxidation (Met) and phosphorylation (ST) as variable modifications. Peptide tolerance was set to 10 ppm and MS/MS tolerance was set to 0.2 Da. […]

[1] = system: porcine brain endothelial cell (PBEC) monolayers; test: Apical to basolateral transport of milk peptides across porcine brain endothelial cell (PBEC) monolayers, blood-brain barrier model; assay type: in vitro ADME; conditions: 2.5 h
Description: Capillaries were isolated from the brain cortices of domestic pigs 5–6 months old as previously described. PBECs were cultured by plating the capillaries in T75 flasks coated with collagen IV (500 µg/mL) and fibronectin (100 µg/mL) in DMEM-F12 medium, supplemented with 10% plasma-derived serum (First Link, Wolverhampton, UK), heparin (15 U), 100 units/mL of penicillin and 100 µg/mL of streptomycin (PBEC growth medium), and cultured in an incubator with humidified 5% CO2/95% air at 37 °C. Puromycin (4 µg/mL) was added to the growth medium for the first three days to obtain a pure culture of PBECs.
Astrocyte conditioned medium was collected every third day from primary rat astrocytes, sterile filtered and frozen until use. Isolation of primary rat astrocytes and preparation of astrocyte conditioned media were carried out as described in [20].
PBECs were grown until 70–80% confluency as described above and then passaged onto polyester culture inserts with a pore size of 0.4 μm and a growth area of 1.12 cm^2 (Costar, Corning, NY, USA) at a density of 1.1 × 10^5 cells/cm^2 in the PBEC growth medium. In the basolateral chamber, the medium consisted of 1 mL of PBEC growth medium and 0.5 mL of astrocyte conditioned medium. The medium was supplemented with differentiation factors: 550 nM of hydrocortisone, 250 μM of 8-(4-chlorophenylthio)adenosine-3′,5′-cyclic monophosphate (cAMP) and 17.5 μM of RO-201724 two days after seeding. The next day, the integrity of the PBEC monolayer was confirmed by measuring the TEER. Only PBEC monolayers with TEER values higher than 800 Ω cm^2 were used for the transport analysis.
as §1
LC-MS/MS analysis was performed on a TripleTOF 6600 mass spectrometer equipped with an Exigent nanoLC 415 system (AB Sciex, Les Ulis, France). All samples were micro-purified using 3 M Empore C18 discs packed in pipette tips. The lyophilized samples were dissolved in 0.1% formic acid, injected on a trap column (2 cm × 100 µm inner diameter) and separated on an analytical column packed in-house in a pulled emitter (15 cm × 75 µm inner diameter). All columns were packed with ReproSil-Pur C18-AQ 3 µm resin (courtesy of Dr. Marisch, Ammerbuch-Entringen, Germany). […]

[2] = synthetic peptide 2 µg/mL apical, LC-MS/MS of basal medium

Peptide identified in the basolateral chamber of Caco-2 monolayers (transported) (Caco-2 monolayers; Caco-2, 3 weeks on PET inserts 0.4 μm, TEER above 400 Ω cm^2, A-B, mix of 192 purified milk peptides 0.1 mg/mL apical, HBSS + 10 mM HEPES, LC-MS/MS of basolateral medium, identified in two out of three experiments): identified in the basolateral chamber | Peptide identified in the basal compartment (brain side) of the PBEC BBB model (transported) ([1]; primary PBEC on polyester inserts 0.4 μm, astrocyte conditioned medium, TEER higher than 800 Ω cm^2, A-B, mix of 192 milk peptides 0.1 mg/mL apical, HBSS + 10 mM HEPES, LC-MS/MS, five independent studies, αS1 peptide 'or' its truncated peptides stated collectively): identified in all experiments
Sequence: PIGSENSEKTTMPLW [PIGSENSEKTTMPLW]
Fate of synthetic peptide during transport over Caco-2 monolayers (Caco-2 monolayers; [2]): cleaved by carboxypeptidases during the transport | Fate of synthetic peptide during transport over PBEC monolayers [1, 2]: cleaved by carboxypeptidases during the transport
